Earlier results as cited in article PMC3384292 (Journal of the American Chemical Society, 2012).

Molecular target: thrombin (Homo sapiens, UniProt P00734)

inhibition constant to thrombin: femtomolar
Substance: hirudin
